Laboratory results: US10882882B2, “Post fermented tea-derived kaempferol-based compound” (AMOREPACIFIC CORPORATION, priority 2016, dated 2021)

Target: T1, beta amyloid (Aβ1-42) (Homo sapiens, UniProt P05067)
T1 construct: beta amyloid (Aβ1-42, AnaSpec Inc, USA); purchased AnaSpec Inc, USA
Assay: Inhibition of beta amyloid aggregation, fluorescence analysis (ThioflavinT assay)
Format: biochemical
Conditions: for Increased RFU (% of Pos. Cont.): Pos. Cont. (beta amyloid only) = 100; for inhibition of beta amyloid aggregation as compared with the positive control group: positive control (only beta amyloid, no compound) taken as 100%
Experimental: The effect of kaempferol3-O-[2-O″-(E)-p-coumaroyl][beta-D-glucopyranosyl-(1→3)-O-alpha-L-rhamnopyranosyl-(1→6)-O-beta-D-glucopyranoside] on inhibition of beta amyloid aggregation was confirmed by the fluorescence analysis (ThioflavinT assay). Specifically, beta amyloid (Aβ1-42, AnaSpec Inc, USA) was obtained and used at a concentration of 0.1 mg/ml and stored at −80° C. before use. Morin (20 μM), phenol red (20 μM), and kaempferol3-O-[2-O″-(E)-p-coumaroyl][beta-D-glucopyranosyl-(1→3)-O-alpha-L-rhamnopyranosyl-(1→6)-O-beta-D-glucopyranoside] (1 mg/ml) were respectively diluted with DMSO so as to be adjusted to the concentrations. In order to specify the degree of inhibition of Aβ1-42 aggregation, each of the compounds prepared at the above concentrations was diluted with 50 μL of 0.01 M sodium phosphate buffer solution to have a concentration of 10 μM, then 40 μL of 0.1 mg/ml of Aβ1-42 was added thereto, and then 10 μl of 2 mM thioflavinT was added thereto, and fluorescence was measured using a fluorescence spectrometer (RF-5300PC, SHIMADZU CORPORATION, Japan) at 37° C. for 150 minutes at intervals of 5 minutes. In the above table, “RFU” denotes the relative fluorescence unit, and “Increased RFU” denotes the amount of aggregated beta amyloid, and “Increased RFU (% of Pos.Cont.)” denotes the percentage value of the amount of aggregated beta amyloid with respect to that of the positive control group. “Novel substance 33” denotes kaempferol3-O-[2-O″-(E)-p-coumaroyl][beta-D-glucopyranosyl-(1→3)-O-alpha-L-rhamnopyranosyl-(1→6)-O-beta-D-glucopyranoside].

[1] = compound 10 μM, Aβ1-42 0.1 mg/ml, 37° C., 150 minutes

T1 sequence (P05067 672-713 limits assumed): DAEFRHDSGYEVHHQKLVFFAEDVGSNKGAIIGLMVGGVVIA

With `O=S1(=O)OC(c2ccc(O)cc2)(c2ccc(O)cc2)c2ccccc21` [Phenol Red] the “Increased RFU (% of Pos. Cont.)” value [1] was 93.6% and the “inhibition of beta amyloid aggregation as compared with the positive control group” value was 6.4%.

For `O=c1c(O)c(-c2ccc(O)cc2O)oc2cc(O)cc(O)c12` [Morin], the “Increased RFU (% of Pos. Cont.)” value [1] was 78.6%, the “Increased RFU (amount of aggregated beta amyloid)” value (compound 10 μM, Aβ1-42 0.1 mg/ml, thioflavinT, 37° C., 150 minutes) was 11471 RFU and the “inhibition of beta amyloid aggregation as compared with the positive control group” value was 21.4%.
